# Where “and” joins values, the source holds several entries; their conditions need not be identical. Identical values can stand only once.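 Exposure lasted 48 hours, with cells grown in 96-well plates and compounds tested at five concentrations. Abbreviation: GI50, concentration required for 50% inhibition of growth. Definition used: TGI = concentration required for complete inhibition of growth.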
# Tests used:
# Assay in all cases: growth of human tumour cells (NCI), 48 h
# [1] = test system: ACHN renal
# [2] = test system: HOP-92 NSCLC
# [3] = test system: NCI/ADR-RES ovarian
# [4] = test system: HS 578T breast
# [5] = test system: HOP-62 NSCLC
# [6] = test system: RPMI-8226 leukemia
# [7] = test system: CCRF-CEM leukemia
# [8] = test system: COLO 205 colon
# [9] = test system: MOLT-4 leukemia
# [10] = test system: U251 CNS
# [11] = test system: NCI-H460 lung
# [12] = test system: OVCAR-5 ovarian
# [13] = test system: MCF7 breast
# [14] = test system: HT29 colon
# [15] = test system: BT-549 breast
# [16] = test system: MALME-3M melanoma
# [17] = test system: PC-3 prostate
# [18] = test system: A549 NSCLC
# [19] = test system: 786-0 renal
# [20] = test system: CAKI-1 renal
# [21] = test system: SK-MEL-2 melanoma
# [22] = test system: SK-MEL-28 melanoma
# [23] = test system: UACC-62 melanoma
# [24] = test system: SW-620 colon
# [25] = test system: SR leukemia
# [26] = test system: NCI-H226 lung
# [27] = test system: OVCAR-3 ovarian
# [28] = test system: UO-31 renal
# [29] = test system: SF-295 CNS
# [30] = test system: OVCAR-4 ovarian
# [31] = test system: OVCAR-8 ovarian
# [32] = test system: SK-OV-3 ovarian
# [33] = test system: SNB-75 CNS
# [34] = test system: A498 renal
# [35] = test system: SK-MEL-5 melanoma
# [36] = test system: MDA-MB-231 breast
# [37] = test system: TK-10 renal
# [38] = test system: HCT-116 colon
# [39] = test system: EKVX NSCLC
# [40] = test system: SNB-19 CNS
# [41] = test system: SN12C renal
# [42] = test system: NCI-H23 lung
# [43] = test system: DU-145 prostate
# [44] = test system: SF-539 CNS
# [45] = test system: LOX IMVI melanoma
# [46] = test system: HCT-15 colon
# [47] = test system: HL-60(TB) leukemia
# [48] = test system: HCC-2998 colon
# [49] = test system: IGROV1 ovarian
# [50] = test system: NCI-H522 lung
# [51] = test system: SF-268 CNS
# [52] = test system: KM12 colon
# [53] = test system: K-562 leukemia
# [54] = test system: UACC-257 melanoma
# [55] = test system: M14 melanoma
# [56] = test system: MDA-MB-435
# [57] = test system: T-47D breast
# [58] = test system: RXF 393 renal
structure (smiles),measurement,setting,value
c1ccc(-c2c(-c3ccccc3)[n+](Cc3ccc4ccccc4c3)cn2Cc2ccc3ccccc3c2)cc1,GI50,[1],1.47 µM
same,TGI,[1],2.9 µM
same,GI50,[2],0.122 µM
same,TGI,[2],1.26 µM
same,GI50,[3],2.13 µM
same,TGI,[3],5.12 µM
same,GI50,[4],1.74 µM
same,TGI,[4],4.91 µM
COc1ccc(-c2csc3c2-n2cccc2C3=O)cc1,TGI,[1],> 90.9 µM
same,GI50,[5],0.0986 µM
same,TGI,[5],> 72 µM
same,GI50,[6],0.0259 µM
same,GI50,[7],0.0299 µM
same,TGI,[7],> 100 µM
same,TGI,[8],5.78 µM
same,GI50,[9],0.0352 µM
same,TGI,[9],> 87.7 µM
same,GI50,[10],0.00887 µM
same,TGI,[10],> 100 µM
same,GI50,[11],0.273 µM
same,TGI,[11],> 43 µM
same,GI50,[2],0.0919 µM
same,TGI,[2],> 100 µM
same,TGI,[3],> 100 µM
same,GI50,[12],0.0946 µM
same,TGI,[12],> 100 µM
same,GI50,[13],0.0945 µM
same,TGI,[13],> 41.6 µM
same,GI50,[14],0.00571 µM
same,GI50,[15],0.0492 µM
same,TGI,[16],> 100 µM
same,GI50,[17],0.0317 µM
same,TGI,[17],> 52.1 µM
same,GI50,[18],0.0664 µM
same,TGI,[18],> 100 µM
same,GI50,[19],0.0497 µM
same,TGI,[19],> 100 µM
same,GI50,[20],0.0528 µM
same,TGI,[20],> 100 µM
same,GI50,[21],0.0111 µM
same,TGI,[21],> 79.9 µM
same,TGI,[22],> 100 µM
same,GI50,[23],0.232 µM
same,TGI,[23],> 100 µM
same,GI50,[24],0.0056 µM
same,TGI,[24],> 100 µM
same,GI50,[25],0.00314 µM
same,GI50,[26],0.0174 µM
same,TGI,[27],0.264 µM
same,GI50,[28],0.049 µM
same,TGI,[28],> 44.2 µM
same,GI50,[29],0.0476 µM
same,TGI,[29],> 75.5 µM
same,GI50,[30],2.58 µM
same,TGI,[30],> 100 µM
same,GI50,[31],0.068 µM
same,TGI,[31],> 100 µM
same,TGI,[32],5.98 µM and 25.3 µM
same,TGI,[33],0.434 µM
same,GI50,[34],0.124 µM
same,TGI,[34],1.17 µM and 3.15 µM
same,GI50,[35],0.0236 µM
same,TGI,[36],> 100 µM
same,TGI,[37],> 100 µM
same,GI50,[38],0.0199 µM
same,TGI,[38],> 45.4 µM
same,GI50,[39],0.597 µM
same,TGI,[39],> 81.4 µM
same,GI50,[40],0.0394 µM
same,TGI,[40],> 100 µM
same,GI50,[41],0.0681 µM
same,TGI,[41],> 100 µM
same,TGI,[42],> 100 µM
same,GI50,[43],0.0601 µM
same,TGI,[44],2.39 µM
same,GI50,[45],0.0349 µM
same,TGI,[45],> 100 µM
same,GI50,[46],0.0276 µM
same,TGI,[46],> 100 µM
same,GI50,[47],0.00416 µM
same,TGI,[47],0.0185 µM and 0.0984 µM
same,GI50,[48],0.232 µM
same,TGI,[48],2.56 µM and 5.8 µM
same,GI50,[49],0.0229 µM
same,TGI,[49],> 88.5 µM
same,GI50,[50],0.00234 µM and 0.0218 µM
same,TGI,[50],0.00998 µM and 0.0802 µM
same,GI50,[4],0.211 µM and 0.0224 µM
same,TGI,[4],0.095 µM
same,GI50,[51],0.0434 µM
same,TGI,[51],> 100 µM
same,GI50,[52],0.0133 µM
same,GI50,[53],0.00275 µM
CCCCCCCCCCCCCCCCOCC(COP(=O)(O)OCC1OC(n2cc(CC)c(=O)[nH]c2=O)CC1O)OC(=O)CCCCCCCCCCCCCCC (centres undefined),TGI,[1],> 100 µM
same,TGI,[5],> 100 µM
same,TGI,[6],> 100 µM
same,TGI,[7],> 100 µM
same,TGI,[8],> 100 µM
same,TGI,[9],> 100 µM
same,TGI,[10],> 100 µM
same,TGI,[2],> 100 µM
same,TGI,[3],> 100 µM
same,TGI,[12],> 100 µM
same,TGI,[54],> 100 µM
same,TGI,[55],> 100 µM
same,TGI,[13],> 100 µM
same,TGI,[14],> 100 µM
same,TGI,[17],> 100 µM
same,TGI,[18],> 100 µM
same,TGI,[19],> 100 µM
same,TGI,[20],> 100 µM
same,TGI,[21],> 100 µM
same,TGI,[22],> 100 µM
same,TGI,[23],> 100 µM
same,TGI,[24],> 100 µM
same,TGI,[25],> 100 µM
same,TGI,[26],> 100 µM
same,TGI,[27],> 100 µM
same,TGI,[28],> 100 µM
same,TGI,[29],> 100 µM
same,TGI,[56],> 100 µM
same,TGI,[30],> 100 µM
same,TGI,[31],> 100 µM
same,TGI,[32],> 100 µM
same,TGI,[33],> 100 µM
same,TGI,[34],> 100 µM
same,TGI,[36],> 100 µM
same,TGI,[37],> 100 µM
same,TGI,[38],> 100 µM
same,TGI,[39],> 100 µM
same,TGI,[40],> 100 µM
same,TGI,[41],> 100 µM
same,TGI,[42],> 100 µM
same,TGI,[43],> 100 µM
same,TGI,[44],> 100 µM
same,TGI,[45],> 100 µM
same,TGI,[46],> 100 µM
same,TGI,[47],> 100 µM
same,TGI,[48],> 100 µM
same,TGI,[49],> 100 µM
same,TGI,[50],> 100 µM
same,TGI,[4],> 100 µM
same,TGI,[51],> 100 µM
same,TGI,[57],> 100 µM
same,TGI,[52],> 100 µM
same,TGI,[53],> 100 µM
same,TGI,[58],> 100 µM
Cc1cccc2cc(/C=C/C(=O)/C=C/c3ccc(Cl)cc3)c(=O)[nH]c12,GI50,[5],> 100 µM
same,TGI,[5],> 100 µM
same,GI50,[6],0.331 µM
same,TGI,[6],1.26 µM
same,GI50,[7],3.98 µM
same,TGI,[7],88.8 µM
same,GI50,[9],5.69 µM
same,TGI,[9],> 100 µM
same,GI50,[11],> 100 µM
same,TGI,[11],> 100 µM
same,GI50,[2],> 100 µM
same,TGI,[2],> 100 µM
same,GI50,[3],> 100 µM
same,TGI,[3],> 100 µM
same,GI50,[12],> 100 µM
same,TGI,[12],> 100 µM
same,GI50,[54],> 100 µM
same,TGI,[54],> 100 µM
same,GI50,[16],> 100 µM
same,TGI,[16],> 100 µM
same,GI50,[20],> 100 µM
same,TGI,[20],> 100 µM
same,GI50,[21],> 100 µM
same,TGI,[21],> 100 µM
same,GI50,[24],2.98 µM
same,TGI,[24],> 100 µM
same,GI50,[25],2.72 µM
same,TGI,[25],11.6 µM
same,GI50,[30],> 100 µM
same,TGI,[30],> 100 µM
same,GI50,[32],> 100 µM
same,TGI,[32],> 100 µM
same,GI50,[33],16.8 µM
same,TGI,[33],> 100 µM
same,GI50,[34],> 100 µM
same,TGI,[34],> 100 µM
same,GI50,[35],> 100 µM
same,TGI,[35],> 100 µM
same,GI50,[36],3.71 µM
same,TGI,[36],> 100 µM
same,GI50,[37],> 100 µM
same,TGI,[37],> 100 µM
same,GI50,[38],0.259 µM
same,TGI,[38],0.635 µM
same,GI50,[39],> 100 µM
same,TGI,[39],> 100 µM
same,GI50,[44],> 100 µM
same,TGI,[44],> 100 µM
same,GI50,[4],> 100 µM
same,TGI,[4],> 100 µM
same,GI50,[53],3.8 µM
same,TGI,[53],> 100 µM

# Reference: PubChem BioAssay (NCI)
